The text below walks through data of patent US12157749B2, “Borate-based drug and use thereof” (Chengdu Origin Biotechnology Limited Company, priority 2018, dated 2024).

Structures are written as SMILES. Structures can show the parent of a compound that is named as a salt.

Assay [1] relates to human multiple myeloma cells KMS-11. Put plainly: Activity test on human multiple myeloma cells KMS-11 (CCK-8, GI50). It counts as cell-based. The settings on record: KMS-11 cells, 48 h incubation. As for the experimental part: Cells KMS-11 (human multiple myeloma cells from JCRB ((Japanese Collection of Research Bioresources Cell Bank), AJCRB1179) were cultured to logarithmic growth phase in RPMI 1640 medium containing 10% fetal bovine serum at 37° C. and 5% CO2. The cells were inoculated into a 96-well culture plate in proper quantity per well. After being cultured at 37° C. and 5% CO2 for 24 h, solvent control DMSO or test compounds dissolved in DMSO were added to the cells, wherein the starting concentration of the test compound was 0.3 μM, and diluted 3-fold each time for a total of 6 times to obtain 6 concentration gradients. The cells were incubated with the test compounds at 37° C. and 5% CO2 for 48 h. CCK-8 reagent was added to each well and the cells were incubated at 37° C. for 2 h according to the reagent instructions, and the optical density value of each well was read with spectrophotometer at 450 nm wavelength.
The optical density value of the cell was set as Tz value when the drug had null action on the cell, which represented the cell value when the drug was added. The optical density value of the cells was set as C value after the cells were acted by solvent control DMSO for 48 h; and the optical density value of the cell was set as Ti value after the cells were acted by the test compounds for 48 h. According to the method proposed by NIH—NCI in the United States, the cell response to drugs was calculated as follows: [(Ti−Tz)/(C−Tz)]×100 when Ti≥Tz; [(Ti−Tz)/Tz]×100 when Ti<Tz. According to the above calculation, the GI50 value (the concentration of the test compound as required when the cell growth inhibition rate was […]) was calculated by using the 4-parameter logistic model in XLfit software.

For assay [2], the system named is transplantation tumor of human multiple myeloma MM.1S. In words: Transplantation tumor model of human multiple myeloma cells MM.1S in CB17-SCID mouse, dose 0.00831 mmol/kg (Activity Experiment Example 2). It is filed as in vivo. The settings on record: for Relative tumor proliferation rate T/C(%): 0.00831 mmol/kg oral gavage twice a week. As for the experimental part: The model used in this experiment was the transplantation tumor model of human multiple myeloma cells line MM.1 S in CB17-SCID mouse (purchased from Beijing Weitong Lihua Experimental Animal Technology Co., Ltd.). Cryopreserved MM.1S cells were cultured in vitro by conventionally way after resuscitation. The cells were collected in logarithmic growth phase and diluted with serum-free culture medium or PBS to form a tumor cell suspension with a concentration of 5×10^7/ml. The tumor cell suspensions prepared above were taken with a 1 ml syringe and injected subcutaneously into the left armpit backrest side of the mouse, and 0.2 ml was injected into each inoculation site. About 1 to 2 weeks after the cultured tumor cells were injected into CB17-SCID mouse, the tumors were touched under the armpit. When the tumor volume was more than 100 mm^3, the tumor volume was measured and calculated, and the mice were randomly divided into groups according to the tumor volume. The administration doses of different test samples were equivalent doses on a molar basis with a specific dose of 0.00831 mmol/kg. Administration mode and frequency: The test samples were administered by oral gavage with a volume of 10 ml/kg. The model group was given equal volume of solvent. The test samples were administered twice a week for five times (with administration dose of 0.00831 mmol/kg, i.e., the dose of MLN9708 being 4.30 mg/kg, the dose of the compound 6a being 4.67 mg/kg, and the dose of the compound 6b being 4.53 mg/kg) for a duration of 19 days. The administration was conducted on the 1st, 4th, 8th, 11th and 15th day, and the experiment was finished on the 19th day. The mental state, activity, eating and other general conditions of mice were observed every day, and the weight was measured twice a week. The short diameter (a) and long diameter (b) of each mouse tumor were measured with vernier caliper twice a week, and the tumor volume was calculated according to formula (a^2×b)/2. The relative tumor volume (RTV) was calculated according to the measured tumor volume, RTV=Vt/V0. Wherein, V0 was the tumor volume when random grouping (i.e. d0) and Vt was the tumor volume at each measurement (i.e. dn). According to the following formula, evaluation index of anti-tumor activity, the relative tumor proliferation rate T/C (%), was calculated: Note: TRTV is RTV of treatment group, and CRTV is RTV of model control group. Efficacy evaluation standard is T/C %≤40%, and after statistics procession, p<0.05 is considered significant. On the 19th day, after the tumor was weighted and measured, the mice in each group were killed, and the tumor was dissected and weighed. According to the tumor weight, the tumor inhibition rate (TGI) was calculated, TGI=((average tumor weight of model group−average tumor weight of administration group)/average tumor weight of model group)×100%.

Assay [3] has the same test system. Put plainly: Transplantation tumor model of human multiple myeloma cells MM.1S in CB17-SCID mouse, low dose 0.00554 mmol/kg (Activity Experiment Example 4). The settings on record: for Relative tumor proliferation rate T/C(%): 0.00554 mmol/kg oral gavage twice a week. It is filed as in vivo. The protocol:
The model used in this experiment was the transplantation tumor model of human multiple myeloma cells line MM.1S in CB17-SCID mouse. Cryopreserved MM.1S cells were cultured in vitro conventionally after resuscitation. The cells were collected in logarithmic growth phase and diluted with serum-free culture medium or PBS to form a tumor cell suspension with a concentration of 5×10^7/ml. The tumor cell suspensions prepared above were taken with a 1 ml syringe and injected subcutaneously into the left armpit backrest side of the mouse, and 0.2 ml was injected into each inoculation site. About 1 to 2 weeks after the cultured tumor cells were injected into the CB17-SCID mouse, the tumors were touched under the armpit. When the tumor volume was more than 100 mm^3, the tumor volume was measured and calculated, and the mice were randomly divided into groups according to the tumor volume. The administration doses of different test samples were equivalent doses on a molar basis with a specific dose of 0.00554 mmol/kg. Administration mode and frequency: the test samples were administered by oral gavage with a volume of 10 ml/kg. The model group was given equal volume of solvent. The test samples were administered twice a week for five times with an administration dose of 0.00554 mmol/kg, i.e., the dose of MLN9708 being 2.86 mg/kg, the dose of the compound 6q being 2.77 mg/kg, the dose of the compound 6f being 2.80 mg/kg, and the dose of the compound 6b being 3.02 mg/kg, for a duration of 17 days. The administration was conducted on the 1st, 5th, 8th, 12th and 15th day, and the experiment was finished on the 17th day. The mental state, activity, eating and other general conditions of mice were observed every day, and the weight was measured twice a week. The short diameter (a) and long diameter (b) of each mouse tumor were measured with a vernier caliper twice a week, and the tumor volume was calculated according to formula (a^2×b)/2. The relative tumor volume (RTV) was calculated according to the measured tumor volume, RTV=Vt/V0. Wherein, V0 was the tumor volume when random grouping (i.e. d0) and Vt was the tumor volume at each measurement (i.e. […]). According to the following formula, evaluation index of anti-tumor activity relative to the relative tumor proliferation rate T/C (%) was calculated: Note: TRTV is RTV of treatment group, and CRTV is RTV of model control group. According to “Technical Guidelines for Non-clinical Research of Cytotoxic Antitumor Drugs” issued by State Food and Drug Administration in China, the evaluation standard is T/C %≤40%, and after statistics procession, p<0.05 is considered significant. On the 19th day, after the tumor was weighted and measured, the mice in each group were killed, and the tumor was dissected and weighed. According to the tumor weight, the tumor inhibition rate (TGI) was calculated, TGI=((average tumor weight of model group−average tumor weight of administration group)/average tumor weight of model group)×100%.

For assay [4], the system named is human multiple myeloma cells RPMI-8226. In words: Activity test on human multiple myeloma cells RPMI-8226 (CCK-8, GI50). As to conditions: RPMI 8226 cells, 48 h incubation. It is filed as cell-based. As for the experimental part:
(§1) Cells RPMI-8226 (human multiple myeloma cells from ATCC (American type culture collection), ATCC CCL-155) and cells MM.1S (human multiple myeloma cells from ATCC (American type culture collection), ATCC CRL-2974) were cultured to logarithmic growth phase in RPMI 1640 medium containing 10% fetal bovine serum at 37° C. and 5% CO2. The cells were inoculated into 96-well culture plates in proper quantity per well. After culturing at 37° C. and 5% CO2 for 24 h, solvent control DMSO or test compounds dissolved in DMSO were added to the wells, wherein the starting concentration of the test compounds were […], and diluted 3-fold each time for a total of 6 times to obtain 6 concentration gradients. The cells were incubated together with the test compounds at 37° C. and 5% CO2 for 48 h. CCK-8 reagent was added to each well and the cells were incubated at 37° C. for 2 h according to the reagent instructions, and the optical density value of each well was read with spectrophotometer at 450 nm wavelength.
(§2) The optical density value of the cells was set as Tz value when the drugs had null action on the cell, which represented the cell value when the drugs were added. The optical density values of the cells were set as C value after the cells were acted by solvent control DMSO for 48 h; and the optical density values of the cell were set as Ti value after the cells were acted by the test compounds for 48 h. According to the method proposed by NIH—NCI in the United States, the cells' response to drugs was calculated as follows: [(Ti−Tz)/(C−Tz)]×100 when Ti≥Tz; [(Ti−Tz)/Tz]×100 when Ti<Tz. According to the above calculation, the GI50 value (the concentration of the test compound required when the cell growth inhibition rate was 50%) was calculated by using the 4-parameter logistic model in XLfit software.

In assay [5] the test system is human multiple myeloma cells MM.1S. In words: Activity test on human multiple myeloma cells MM.1S (CCK-8, GI50). It counts as cell-based. The settings on record: MM1.S, MM.1S cells, 48 h incubation. The protocol:
as §1, §2

One may read the GI50 as the concentration at which growth is held to half of that of the control. The low end stands for more potent growth inhibition, the high end for less potent growth inhibition. As to `CC(C)C[C@H](NC(=O)CNC(=O)c1cc(Br)ccc1F)B(O)O`, in assay [1], the GI50 came out at 35.7 nM.

Regarding `CC(C)C[C@H](NC(=O)CNC(=O)c1cc(Br)ccc1F)B1OC(=O)c2ccccc2O1`, the GI50 in assay [1] came out at 34.1 nM.

`Cc1ccc(F)c(C(=O)NCC(=O)N[C@@H](CC(C)C)B2OC(=O)C(CC(=O)O)(CC(=O)O)O2)c1` returned a GI50 in assay [1] of 90.5 nM.

Compound `CC(C)C[C@H](NC(=O)CNC(=O)c1cc(F)ccc1F)B1OC(=O)C(CC(=O)O)(CC(=O)O)O1` had a GI50 in assay [1] of 87.8 nM.

`CC(C)C[C@H](NC(=O)CNC(=O)c1cc(Cl)ccc1Cl)B1OC(=O)C(CC(=O)O)(CC(=O)O)O1` [MLN9708, Ixazomib Citrate, reference compound]: the “tumor weight (g)” value in assay [2] (X ± SD, tumor dissected on day 19, 0.00831 mmol/kg oral gavage, five doses) was 1.782 ± 1.361^★★▴▴ g. Also, the “Relative tumor proliferation rate T/C(%)” value in assay [2] (day 4) was found to be 84.97%; in assay [2] (day 8), 59.75%; in assay [2] (day 11), 51.05%; in assay [2] (day 15), 41.67%; in assay [2] (day 19), 56.1%; in assay [3] (day 5), 90.08%. Moreover, the “Relative tumor proliferation rate T/C(%)” value in assay [3] (day 8) was found to be 112.42%; in assay [3] (day 12), 137.07%; in assay [3] (day 15) it was 97.25%; in assay [3] (day 17), 84.29%. Besides, the “tumor inhibition rate (%)” value is recorded as 50.69% in assay [2] (from tumor weight, day 19, 0.00831 mmol/kg oral gavage, five doses) and −0.48% in assay [3] (from tumor weight at end of experiment, 0.00554 mmol/kg oral gavage, five doses). In assay [3] (0.00554 mmol/kg oral gavage), the “inhibition of tumor growth (in words)” value is given as “no effect on inhibiting tumor growth”. Moreover, the “inhibitory effect sequence on transplantation tumor growth from strong to weak” value in assay [3] (0.00554 mmol/kg oral gavage) is recorded as 6b>6f>6q>MLN9708. Moreover, in assay [3] (X ± SD, tumor dissected at end of experiment, 0.00554 mmol/kg oral gavage, five doses), the “tumor weight” value amounted to 2.953 ± 0.668 g.

With `CC(C)C[C@H](NC(=O)CNC(=O)c1cc(Br)ccc1Cl)B1OC(=O)C(CC(=O)O)(CC(=O)O)O1` [drawing 60], the GI50 in assay [4] is 0.0107 µM; in assay [5] it was 0.0133 µM.

For `CC(C)C[C@H](NC(=O)CNC(=O)c1cc(Br)ccc1F)B1OC(=O)C(CC(=O)O)(CC(=O)O)O1` [drawing 61], the GI50 was 0.012 µM in assay [4] and 0.0112 µM in assay [5].

Turning to `CC(C)C[C@H](NC(=O)CNC(=O)c1cc(C(F)(F)F)ccc1F)B1OC(=O)C(CC(=O)O)(CC(=O)O)O1` [drawing 62], the GI50 was 0.0182 µM in assay [4] and 0.026 µM in assay [5].

With `CC(C)C[C@H](NC(=O)CNC(=O)c1cc(Cl)ccc1Cl)B1OC(=O)C(CC(=O)O)(CC(=O)O)O1` [drawing 63], the GI50 in assay [4] amounted to 0.0122 µM; in assay [5] it was 0.0128 µM.

With `CC(C)C[C@H](NC(=O)CNC(=O)c1cc(F)ccc1Br)B1OC(=O)C(CC(=O)O)(CC(=O)O)O1` [drawing 64], the GI50 in assay [4] is 0.0134 µM; in assay [5] it was 0.012 µM.

As for `CC(C)C[C@H](NC(=O)CNC(=O)c1cc(Br)ccc1F)B1OC(=O)C(CC(=O)O)(CC(=O)O)O1` [drawing 66], growth in assay [1] was halved (GI50) at 39.7 nM.

For the compound `CC(C)C[C@H](NC(=O)CNC(=O)c1cc(C(F)(F)F)ccc1F)B1OC(=O)C(CC(=O)O)(CC(=O)O)O1` [drawing 67], the 50% growth inhibitory concentration (GI50) in assay [1] was found to be 57.8 nM.

With `CC(C)C[C@H](NC(=O)CNC(=O)c1cc(Br)ccc1F)B1OC(=O)C(c2ccccc2)O1` (some centres unmarked) [drawing 69], in assay [1], growth was halved (GI50) at 29.9 nM.

Take `CC(C)C[C@H](NC(=O)CNC(=O)c1cc(F)ccc1Br)B1OC(=O)C(CC(=O)O)(CC(=O)O)O1` [drawing 70]: growth in assay [1] was halved (GI50) at 35.7 nM.

In turn, `CC(C)C[C@H](NC(=O)CNC(=O)c1cc(Cl)ccc1F)B1OC(=O)C(CC(=O)O)(CC(=O)O)O1` [drawing 71] registered a 50% growth inhibitory concentration (GI50) in assay [1] of 59 nM.
